Measurements from US7851474B2, “Dipiperazinyl ketones and related analogues” (Neurogen Corporation, priority 2005, dated 2010).

molecular target: T1, chimeric human H3 receptor (Homo sapiens, UniProt Q9Y5N1, E19D); assay: Chimeric human H3 receptor GTP binding assay (agonist-stimulated GTP-gamma35S binding, Example 7); format: biochemical; details: not given
T1 construct: made in house; host or cells: Sf9 insect cells (baculovirus infection); P2 membrane preparation
Method in brief: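 Sf9 membranes co-expressing the chimeric receptor and heterotrimeric G-protein subunits, 35 μg protein per tube, in pH 7.4 Tris buffer with 10 μM GDP. Test compounds at 10^−10 to 10^−6 M with 1 μM histamine, 60 min at room temperature. Filter-bound GTP-gamma^35S read by scintillation; IC50 from non-linear regression of dose-response curves.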

T1 sequence (Q9Y5N1 with tags, fused parts or gaps E19D): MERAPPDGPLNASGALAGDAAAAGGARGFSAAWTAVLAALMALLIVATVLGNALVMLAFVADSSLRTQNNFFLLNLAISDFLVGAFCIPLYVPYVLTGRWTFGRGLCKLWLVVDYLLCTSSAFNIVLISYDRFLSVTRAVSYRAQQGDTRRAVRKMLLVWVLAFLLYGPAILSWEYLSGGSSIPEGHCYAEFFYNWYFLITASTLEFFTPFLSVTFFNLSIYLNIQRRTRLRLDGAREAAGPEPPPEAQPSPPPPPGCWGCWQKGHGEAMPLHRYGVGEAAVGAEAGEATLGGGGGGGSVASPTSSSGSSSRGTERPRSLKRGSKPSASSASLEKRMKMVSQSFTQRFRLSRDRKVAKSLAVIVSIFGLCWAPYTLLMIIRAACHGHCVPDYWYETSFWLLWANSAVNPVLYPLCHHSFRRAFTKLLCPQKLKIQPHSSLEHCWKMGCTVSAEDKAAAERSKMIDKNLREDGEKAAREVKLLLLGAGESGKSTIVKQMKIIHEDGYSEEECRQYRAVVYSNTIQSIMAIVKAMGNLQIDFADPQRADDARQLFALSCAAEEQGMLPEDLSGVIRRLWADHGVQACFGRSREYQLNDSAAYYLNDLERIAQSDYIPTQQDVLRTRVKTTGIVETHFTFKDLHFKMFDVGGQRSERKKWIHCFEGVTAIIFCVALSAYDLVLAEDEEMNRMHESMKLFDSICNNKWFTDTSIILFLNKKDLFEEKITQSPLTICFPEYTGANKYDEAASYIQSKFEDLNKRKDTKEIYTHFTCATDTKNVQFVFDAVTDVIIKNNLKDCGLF

Row | Compound | Ki [µM]
1 | CC(=O)C1(c2ccccc2)CCN(CC(=O)N2CCN(C3CCC3)CC2)CC1 [Compound 478, 1-{1-[2-(4-cyclobutylpiperazin-1-yl)-2-oxoethyl]-4-phenylpiperidin-4-yl}ethanone] | < 1

same assay, conditions: Table II "Ki", symbol "*": Ki in the assay of Example 7; read-out: Ki

Row | Compound | Ki [µM]
2 | O=C(CN1CCN(c2ccc([N+](=O)[O-])cc2)CC1)N1CCN(C2CCC2)CC1 [Compound 786, 1-cyclobutyl-4-{[4-(4-nitrophenyl)piperazin-1-yl]acetyl}piperazine] | < 1
3 | CC(C)c1cccc(-c2cnc(N3CCN(CC(=O)N4CCN(C5CCC5)CC4)CC3)cn2)c1 [Compound 926, 2-{4-[2-(4-cyclobutylpiperazin-1-yl)-2-oxoethyl]piperazin-1-yl}-5-(3-isopropylphenyl)pyrazine] | < 1
4 | CCc1ccc(-c2cnc(N3CCN(CC(=O)N4CCN(C5CCC5)CC4)CC3)cn2)cc1 [Compound 930, 2-{4-[2-(4-cyclobutylpiperazin-1-yl)-2-oxoethyl]piperazin-1-yl}-5-(4-ethylphenyl)pyrazine] | < 1
5 | Cc1ccc(N2CCN(CC(=O)N3CCN(C4CCCCC4)CC3)CC2)cc1C [Compound 817, 1-cyclohexyl-4-{[4-(3,4-dimethylphenyl)piperazin-1-yl]acetyl}piperazine] | < 1
6 | CCC(C)N1CCN(C(=O)CN2CCN(c3ccc(C(F)(F)F)cc3)CC2)CC1 (stereo not shown) [Compound 854, 1-sec-butyl-4-({4-[4-(trifluoromethyl)phenyl]piperazin-1-yl}acetyl)piperazine] | < 1

same assay, conditions: Table II, "*" in Ki; assay of Example 7; read-out: Ki

Row | Compound | Ki [µM]
7 | CCCS(=O)(=O)c1ccc(N2CCN(CC(=O)N3CCN(C4CCC4)CC3)CC2)cc1 [Compound 602, 1-cyclobutyl-4-({4-[4-(propylsulfonyl)phenyl]piperazin-1-yl}acetyl)piperazine] | < 1
8 | COc1ccc(OC)c(-c2ccc(N3CCN(CC(=O)N4CCN(C5CCC5)CC4)CC3)cc2)c1 [Compound 687, 1-cyclobutyl-4-{[4-(2′,5′-dimethoxybiphenyl-4-yl)piperazin-1-yl]acetyl}piperazine] | < 1
9 | O=C(CN1CCN(c2ccc(-c3ccc(Cl)c(Cl)c3)cc2)CC1)N1CCN(C2CCC2)CC1 [Compound 727, 1-cyclobutyl-4-{[4-(3′,4′-dichlorobiphenyl-4-yl)piperazin-1-yl]acetyl}piperazine] | < 1

same assay, conditions: Table II; assay of Example 7; "*" in Ki; read-out: Ki

Row | Compound | Ki [µM]
10 | O=C(NC1CCCCC1)c1cccc(N2CCN(CC(=O)N3CCN(C4CCC4)CC3)CC2)c1 [Compound 1079, 3-{4-[2-(4-cyclobutylpiperazin-1-yl)-2-oxoethyl]piperazin-1-yl}-N-cyclohexylbenzamide] | < 1
11 | CC(C)NC(=O)c1cccc(N2CCN(CC(=O)N3CCN(C4CCC4)CC3)CC2)c1 [Compound 1080, 3-{4-[2-(4-cyclobutylpiperazin-1-yl)-2-oxoethyl]piperazin-1-yl}-N-isopropylbenzamide] | < 1
12 | CCN1CCN(C(=O)CN2CCN(c3ccc(OC)cc3)C(C)C2)CC1 (stereo not shown) [Compound 1110, 4-[2-(4-ethylpiperazin-1-yl)-2-oxoethyl]-1-(4-methoxyphenyl)-2-methylpiperazine] | < 1
13 | COc1ccc(N2CCN(CC(=O)N3CCN(C4CCC4)CC3)CC2C)cc1 (stereo not shown) [Compound 1103, 4-[2-(4-cyclobutylpiperazin-1-yl)-2-oxoethyl]-1-(4-methoxyphenyl)-2-methylpiperazine] | < 1

same assay, conditions: assay of Example 7; symbol * in column headed Ki of Table II; read-out: Ki

Row | Compound | Ki [µM]
14 | CC(C)N1CCN(C(=O)CN2CCN(c3ccc(Br)cc3)CC2)CC1 [Compound 339, 1-(4-bromophenyl)-4-[2-(4-isopropylpiperazin-1-yl)-2-oxoethyl]piperazine] | < 1
15 | COc1ccc(N2CCN(CC(=O)N3CCN(C(C)C)CC3)CC2)cc1OC [Compound 285, 1-(3,4-dimethoxyphenyl)-4-[2-(4-isopropylpiperazin-1-yl)-2-oxoethyl]piperazine] | < 1
16 | CC(=O)c1ccc(N2C(=O)C3(CCN(CC(=O)N4CCN(C5CCC5)CC4)CC3)c3ccccc32)nc1 [Compound 363, 1-(5-acetylpyridin-2-yl)-1′-[2-(4-cyclobutylpiperazin-1-yl)-2-oxoethyl]spiro[indole-3,4′-piperidin]-2(1H)-one] | < 1
